Measured values from ChEMBL document CHEMBL5696442, “Discovery of type II inhibitors of TGFβ-activated kinase 1 (TAK1) and mitogen-activated protein kinase kinase kinase kinase 2 (MAP4K2)” (J Med Chem, 2015).
Calls of active or inactive are those of the source. The rule behind the calls is not given here.

Key:
[1] = target: BMP-2-inducible protein kinase (Homo sapiens) (UniProt Q9NSY1); test: Inhibition of BIKE (unknown origin) at 10 uM by Ambit Kinomescan binding assay
[2] = target: T1, Receptor-interacting serine/threonine-protein kinase 4 (Homo sapiens) (UniProt P57078); test: Inhibition of ANKRD3 Lys1 labeling site in human A-375 cells at 0.05 uM by KiNativ Profiling analysis relative to control; assay type: cell-based
T1 sequence (whole entry): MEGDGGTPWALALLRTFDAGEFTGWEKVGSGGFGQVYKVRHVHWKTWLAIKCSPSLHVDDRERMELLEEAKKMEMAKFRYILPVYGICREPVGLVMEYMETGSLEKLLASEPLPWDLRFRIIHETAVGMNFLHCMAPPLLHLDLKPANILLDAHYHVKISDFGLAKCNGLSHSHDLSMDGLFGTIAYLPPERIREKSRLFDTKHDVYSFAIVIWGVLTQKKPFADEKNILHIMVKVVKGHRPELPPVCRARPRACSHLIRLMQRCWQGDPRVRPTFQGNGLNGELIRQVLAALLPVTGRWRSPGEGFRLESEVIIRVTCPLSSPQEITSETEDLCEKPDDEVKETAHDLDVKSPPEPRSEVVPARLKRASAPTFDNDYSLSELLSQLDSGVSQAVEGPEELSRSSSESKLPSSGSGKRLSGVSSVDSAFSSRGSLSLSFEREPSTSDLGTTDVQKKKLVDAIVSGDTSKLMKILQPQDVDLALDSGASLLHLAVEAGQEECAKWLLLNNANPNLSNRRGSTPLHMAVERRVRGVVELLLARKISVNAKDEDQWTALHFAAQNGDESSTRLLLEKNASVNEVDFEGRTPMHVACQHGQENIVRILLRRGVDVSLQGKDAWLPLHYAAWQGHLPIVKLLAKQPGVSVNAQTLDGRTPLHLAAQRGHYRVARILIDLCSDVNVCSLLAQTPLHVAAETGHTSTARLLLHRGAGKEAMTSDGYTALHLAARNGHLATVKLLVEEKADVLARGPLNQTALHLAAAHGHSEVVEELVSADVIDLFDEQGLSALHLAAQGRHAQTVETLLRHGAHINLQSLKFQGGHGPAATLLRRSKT

[3] = target: T2, PAN2-PAN3 deadenylation complex subunit PAN3 (Homo sapiens) (UniProt Q58A45); test: Inhibition of PAN3 KD labeling site in human Huh-7 cells at 10 uM by KiNativ Profiling analysis relative to control; assay type: cell-based
T2 sequence (whole entry): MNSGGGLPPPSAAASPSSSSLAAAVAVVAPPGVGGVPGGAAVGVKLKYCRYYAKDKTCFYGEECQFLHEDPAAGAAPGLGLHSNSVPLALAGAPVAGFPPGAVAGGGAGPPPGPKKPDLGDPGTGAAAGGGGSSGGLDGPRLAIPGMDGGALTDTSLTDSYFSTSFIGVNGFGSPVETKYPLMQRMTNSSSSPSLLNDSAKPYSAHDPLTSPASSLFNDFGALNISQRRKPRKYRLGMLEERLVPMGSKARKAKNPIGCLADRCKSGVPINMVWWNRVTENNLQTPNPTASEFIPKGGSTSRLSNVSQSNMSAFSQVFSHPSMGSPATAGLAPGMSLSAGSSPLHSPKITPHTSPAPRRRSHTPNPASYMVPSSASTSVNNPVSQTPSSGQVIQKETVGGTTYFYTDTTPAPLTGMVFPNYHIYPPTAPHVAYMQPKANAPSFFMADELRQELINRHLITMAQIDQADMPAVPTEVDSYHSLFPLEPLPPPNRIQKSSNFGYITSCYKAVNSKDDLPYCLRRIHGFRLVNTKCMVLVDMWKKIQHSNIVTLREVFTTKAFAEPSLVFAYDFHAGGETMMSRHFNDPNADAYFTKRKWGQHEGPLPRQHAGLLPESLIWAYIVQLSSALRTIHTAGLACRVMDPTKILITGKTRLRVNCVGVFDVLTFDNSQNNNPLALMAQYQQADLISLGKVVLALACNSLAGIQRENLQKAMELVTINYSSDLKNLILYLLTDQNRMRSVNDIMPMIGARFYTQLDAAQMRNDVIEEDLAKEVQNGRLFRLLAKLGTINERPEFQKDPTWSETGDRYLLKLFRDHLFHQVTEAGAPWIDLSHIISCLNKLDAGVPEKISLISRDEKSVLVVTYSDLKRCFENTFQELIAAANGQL

[4] = target: Casein kinase II subunit alpha (Homo sapiens) (UniProt P68400); test: Inhibition of CK2a1 in human Huh-7 cells at 1 uM by KiNativ Profiling analysis relative to control; assay type: cell-based
Casein kinase II subunit alpha (Homo sapiens), sequence (P68400 whole entry, looked up): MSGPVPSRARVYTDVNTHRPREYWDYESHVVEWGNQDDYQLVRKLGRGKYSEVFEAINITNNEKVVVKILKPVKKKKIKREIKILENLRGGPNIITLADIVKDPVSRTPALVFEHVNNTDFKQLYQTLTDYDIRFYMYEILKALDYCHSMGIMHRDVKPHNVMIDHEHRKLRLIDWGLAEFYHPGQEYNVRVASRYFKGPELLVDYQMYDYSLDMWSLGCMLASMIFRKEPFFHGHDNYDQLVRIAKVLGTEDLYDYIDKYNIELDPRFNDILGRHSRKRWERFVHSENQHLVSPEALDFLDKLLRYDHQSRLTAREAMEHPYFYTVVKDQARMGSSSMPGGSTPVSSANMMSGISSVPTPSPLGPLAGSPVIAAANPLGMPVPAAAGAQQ

[5] = target: T3, Serine/threonine-protein kinase D2 (Homo sapiens) (UniProt Q9BZL6); test: Inhibition of PKD2 Lys2 labeling site in human Huh-7 cell lysate at 1 uM by KiNativ Profiling analysis relative to control; assay type: subcellular
T3 sequence (whole entry): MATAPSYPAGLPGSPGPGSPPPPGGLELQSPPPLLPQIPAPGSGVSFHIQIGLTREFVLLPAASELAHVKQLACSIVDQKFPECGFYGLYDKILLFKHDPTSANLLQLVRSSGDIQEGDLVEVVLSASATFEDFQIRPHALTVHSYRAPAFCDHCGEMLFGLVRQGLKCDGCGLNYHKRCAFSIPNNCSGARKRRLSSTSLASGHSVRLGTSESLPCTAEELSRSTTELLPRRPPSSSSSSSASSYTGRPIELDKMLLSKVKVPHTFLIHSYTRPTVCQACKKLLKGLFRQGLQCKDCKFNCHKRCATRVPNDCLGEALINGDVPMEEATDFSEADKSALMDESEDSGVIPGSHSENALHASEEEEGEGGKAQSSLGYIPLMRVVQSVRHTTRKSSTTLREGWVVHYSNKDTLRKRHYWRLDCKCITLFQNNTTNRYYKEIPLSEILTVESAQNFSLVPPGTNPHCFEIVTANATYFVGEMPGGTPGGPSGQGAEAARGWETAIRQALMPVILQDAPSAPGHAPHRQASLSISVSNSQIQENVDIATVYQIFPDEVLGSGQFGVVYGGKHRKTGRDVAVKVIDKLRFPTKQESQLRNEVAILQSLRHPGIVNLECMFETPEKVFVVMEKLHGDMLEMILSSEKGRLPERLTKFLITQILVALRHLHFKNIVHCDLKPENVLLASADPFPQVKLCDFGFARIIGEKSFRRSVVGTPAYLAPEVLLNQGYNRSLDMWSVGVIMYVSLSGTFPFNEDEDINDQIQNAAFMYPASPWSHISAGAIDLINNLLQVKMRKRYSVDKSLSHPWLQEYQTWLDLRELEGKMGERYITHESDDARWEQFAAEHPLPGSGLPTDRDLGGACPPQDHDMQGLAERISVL

[6] = target: Cyclin-dependent kinase 17 (Homo sapiens) (UniProt Q00537); test: Inhibition of PCTAIRE2 Lys2 labeling site harbouring DLKPQNLLINEKin human Huh-7 cells at 1 uM by KiNativ Profiling analysis relative to control; assay type: cell-based
Cyclin-dependent kinase 17 (Homo sapiens), sequence (Q00537 whole entry, looked up): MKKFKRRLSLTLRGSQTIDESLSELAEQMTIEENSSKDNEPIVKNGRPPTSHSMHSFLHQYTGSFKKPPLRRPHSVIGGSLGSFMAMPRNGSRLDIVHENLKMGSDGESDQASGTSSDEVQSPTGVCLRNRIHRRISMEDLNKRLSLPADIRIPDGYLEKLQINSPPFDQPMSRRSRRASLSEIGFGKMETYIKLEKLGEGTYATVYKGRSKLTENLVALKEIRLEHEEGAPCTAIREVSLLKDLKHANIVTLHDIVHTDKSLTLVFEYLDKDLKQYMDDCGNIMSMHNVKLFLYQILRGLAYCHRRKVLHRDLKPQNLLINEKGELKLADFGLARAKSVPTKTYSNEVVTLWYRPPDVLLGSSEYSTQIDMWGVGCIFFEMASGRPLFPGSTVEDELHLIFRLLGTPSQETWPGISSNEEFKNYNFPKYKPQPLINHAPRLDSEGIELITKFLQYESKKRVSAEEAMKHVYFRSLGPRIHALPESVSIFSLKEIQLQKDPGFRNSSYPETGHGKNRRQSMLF

BMP-2-inducible protein kinase (Homo sapiens), sequence (Q9NSY1 whole entry, looked up): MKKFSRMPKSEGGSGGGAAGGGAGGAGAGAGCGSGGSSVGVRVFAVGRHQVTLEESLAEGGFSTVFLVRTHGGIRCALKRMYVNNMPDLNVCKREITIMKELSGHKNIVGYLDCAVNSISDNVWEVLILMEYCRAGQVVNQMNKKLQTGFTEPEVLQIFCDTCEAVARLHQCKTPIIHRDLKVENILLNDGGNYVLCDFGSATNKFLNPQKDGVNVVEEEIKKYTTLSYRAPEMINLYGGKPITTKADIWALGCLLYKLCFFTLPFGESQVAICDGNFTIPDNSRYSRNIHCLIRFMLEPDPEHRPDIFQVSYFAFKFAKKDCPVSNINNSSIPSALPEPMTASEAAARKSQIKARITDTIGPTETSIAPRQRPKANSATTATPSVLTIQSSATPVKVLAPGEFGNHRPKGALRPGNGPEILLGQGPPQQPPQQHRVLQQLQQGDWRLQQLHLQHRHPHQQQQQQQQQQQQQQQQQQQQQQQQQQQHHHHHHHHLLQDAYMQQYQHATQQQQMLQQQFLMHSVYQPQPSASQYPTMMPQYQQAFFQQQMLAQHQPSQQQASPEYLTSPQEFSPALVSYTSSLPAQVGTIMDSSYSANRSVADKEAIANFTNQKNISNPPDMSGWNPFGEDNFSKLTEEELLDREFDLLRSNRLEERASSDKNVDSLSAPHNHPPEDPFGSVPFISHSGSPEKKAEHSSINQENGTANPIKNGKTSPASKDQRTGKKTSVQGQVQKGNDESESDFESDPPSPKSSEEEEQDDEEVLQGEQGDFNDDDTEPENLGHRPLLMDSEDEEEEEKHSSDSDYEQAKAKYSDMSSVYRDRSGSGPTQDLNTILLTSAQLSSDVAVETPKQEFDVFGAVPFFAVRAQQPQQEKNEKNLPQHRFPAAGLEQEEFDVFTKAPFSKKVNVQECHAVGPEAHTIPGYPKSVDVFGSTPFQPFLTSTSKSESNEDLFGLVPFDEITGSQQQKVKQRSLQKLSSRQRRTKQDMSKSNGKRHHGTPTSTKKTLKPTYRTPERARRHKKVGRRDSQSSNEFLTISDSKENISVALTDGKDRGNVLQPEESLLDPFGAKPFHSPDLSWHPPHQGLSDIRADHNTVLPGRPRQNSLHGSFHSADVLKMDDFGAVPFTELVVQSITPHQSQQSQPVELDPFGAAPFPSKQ

| SMILES | inhibition [1] | inhibition [2] [%] | inhibition [3] [%] | inhibition [4] [%] | inhibition [5] [%] | inhibition [6] [%] |
| --- | --- | --- | --- | --- | --- | --- |
| CCN1CCN(Cc2ccc(NC(=O)c3ccc(C)c(Oc4ccnc5[nH]ccc45)c3)cc2C(F)(F)F)CC1 | inactive | 32.4 | 4.5 | 16 |  |  |
| CNc1cc(Oc2cc(C(=O)Nc3cc(N4CCN(C)CC4)cc(C(F)(F)F)c3)ccc2C)ncn1 |  |  |  |  | -3.5 | -2.1 |
